# Calls of active or inactive are those of the source. The calls are words filed in the database; no cut-off is given here.
# Experiments:
# [1] = test system: K562; assay: Antitumor activity against human K562 cells assessed as cell growth inhibition at 10 uM incubated for 48 hrs by sulforhodamine B assay; type: functional; details: read-out: GI
# [2] = test system: RPMI-8226; assay: Antitumor activity against human RPMI8226 cells assessed as cell growth inhibition at 10 uM incubated for 48 hrs by sulforhodamine B assay; type: functional; details: read-out: GI
# [3] = test system: EKVX; assay: Antitumor activity against human EKVX cells assessed as cell growth inhibition at 10 uM incubated for 48 hrs by sulforhodamine B assay; type: functional; details: read-out: GI
# [4] = test system: NCI-H522; assay: Antitumor activity against human NCI-H522 cells assessed as cell growth inhibition at 10 uM incubated for 48 hrs by sulforhodamine B assay; type: functional; details: read-out: GI
# [5] = test system: COLO 205; assay: Antitumor activity against human COLO205 cells assessed as cell growth inhibition at 10 uM incubated for 48 hrs by sulforhodamine B assay; type: functional; details: read-out: GI
# [6] = test system: KM12; assay: Antitumor activity against human KM12 cells assessed as cell growth inhibition at 10 uM incubated for 48 hrs by sulforhodamine B assay; type: functional; details: read-out: GI
# [7] = test system: SF-268; assay: Antitumor activity against human SF268 cells assessed as cell growth inhibition at 10 uM incubated for 48 hrs by sulforhodamine B assay; type: functional; details: read-out: GI
# [8] = test system: SNB-19; assay: Antitumor activity against human SNB-19 cells assessed as cell growth inhibition at 10 uM incubated for 48 hrs by sulforhodamine B assay; type: functional; details: read-out: GI
# [9] = test system: U-251; assay: Antitumor activity against human U251 cells assessed as cell growth inhibition at 10 uM incubated for 48 hrs by sulforhodamine B assay; type: functional; details: read-out: GI
# [10] = test system: M14; assay: Antitumor activity against human M14 cells assessed as cell growth inhibition at 10 uM incubated for 48 hrs by sulforhodamine B assay; type: functional; details: read-out: GI
# [11] = test system: NCI/ADR-RES; assay: Antitumor activity against human NCI/ADR-RES cells assessed as cell growth inhibition at 10 uM incubated for 48 hrs by sulforhodamine B assay; type: functional; details: read-out: GI
# [12] = test system: SK-OV-3; assay: Antitumor activity against human SK-OV-3 cells assessed as cell growth inhibition at 10 uM incubated for 48 hrs by sulforhodamine B assay; type: functional; details: read-out: GI
# [13] = test system: A498; assay: Antitumor activity against human A498 cells assessed as cell growth inhibition at 10 uM incubated for 48 hrs by sulforhodamine B assay; type: functional; details: read-out: GI
# [14] = test system: RXF 393; assay: Antitumor activity against human RXF 393 cells assessed as cell growth inhibition at 10 uM incubated for 48 hrs by sulforhodamine B assay; type: functional; details: read-out: GI
# [15] = test system: PC-3; assay: Antitumor activity against human PC-3 cells assessed as cell growth inhibition at 10 uM incubated for 48 hrs by sulforhodamine B assay; type: functional; details: read-out: GI
# [16] = test system: Hs-578T; assay: Antitumor activity against human HS 578T cells assessed as cell growth inhibition at 10 uM incubated for 48 hrs by sulforhodamine B assay; type: functional; details: read-out: GI
# [17] = test system: MDA-MB-468; assay: Antitumor activity against human MDA-MB-468 cells assessed as cell growth inhibition at 10 uM incubated for 48 hrs by sulforhodamine B assay; type: functional; details: read-out: GI
# [18] = test system: A549; assay: Cytotoxicity against human A549/ATCC assessed as reduction in cell viability at 10 uM after 48 hrs by MTT assay; type: functional
# [19] = test system: A549; assay: Cytotoxicity against human A549/ATCC assessed as reduction in cell viability at 1 uM after 48 hrs by MTT assay; type: functional
# [20] = test system: A549; assay: Cytotoxicity against human A549/ATCC assessed as reduction in cell viability at 0.01 uM after 48 hrs by MTT assay; type: functional
# [21] = test system: HEK293; assay: Cytotoxicity against human HEK293 assessed as reduction in cell viability at 100 uM after 48 hrs by MTT assay; type: cell-based; details: hek293, 48 h
# [22] = test system: HEK293; assay: Cytotoxicity against human HEK293 assessed as reduction in cell viability at 1 uM after 48 hrs by MTT assay; type: cell-based; details: hek293, 48 h
# [23] = test system: HEK293; assay: Cytotoxicity against human HEK293 assessed as reduction in cell viability at 0.01 uM after 48 hrs by MTT assay; type: cell-based; details: hek293, 48 h
# [24] = test system: Calf thymus DNA; assay: Binding affinity to calf thymus DNA assessed as DNA intercalation by measuring increase in melting temperature of DNA at 10 uM by thermal denaturation based spectrophotometric analysis; type: nucleic-acid assay; details: Bos taurus
# [25] = test system: Calf thymus DNA; assay: Binding affinity to calf thymus DNA assessed as quenching in emission band at 600 nm by ethidium bromide competitive displacement assay; type: nucleic-acid assay; details: Bos taurus
# [26] = test system: Calf thymus DNA; assay: Binding affinity to calf thymus DNA assessed as DNA intercalation by measuring increase in intensity of CD band at 281 nm at 1 uM by CD spectroscopy; type: nucleic-acid assay; details: Bos taurus
# [27] = test system: DNA; assay: Binding affinity to human DNA in blood assessed as DNA intercalation by measuring hypochromic shift at 398 nm at 20 uM by UV-Vis spectral titration analysis; type: tissue-based
# [28] = test system: DNA; assay: Binding affinity to human DNA in blood assessed as quenching constant by fluorescence emission spectrum analysis; type: tissue-based
# [29] = target: T1, Albumin (Bos taurus, UniProt P02769); assay: Binding affinity to bovine serum albumin assessed as formation of new absorption band at 400 nm at 0-10 uM by UV-vis absorption spectral titration analysis; type: ADME, cell-free; details: cattle
# [30] = target: T1, Albumin; assay: Binding affinity to bovine serum albumin assessed as decrease in fluorescence emission intensity at 350 nm at 0-12 uM by fluorescence emission spectrum analysis; type: ADME, cell-free; details: cattle, 0.35 µM
# [31] = target: T1, Albumin; assay: Binding affinity to bovine serum albumin assessed as Stern-Volmer quenching constant at 298K by fluorescence emission spectrum analysis; type: ADME, cell-free; details: cattle
# [32] = target: T1, Albumin; assay: Binding affinity to bovine serum albumin assessed as quenching constant at 298K by fluorescence emission spectrum analysis; type: ADME, cell-free; details: cattle
# [33] = target: T1, Albumin; assay: Binding affinity to bovine serum albumin assessed as quenching constant at 308K by fluorescence emission spectrum analysis; type: ADME, cell-free; details: cattle
# [34] = target: T1, Albumin; assay: Binding affinity to bovine serum albumin assessed as quenching constant at 318K by fluorescence emission spectrum analysis; type: ADME, cell-free; details: cattle
# [35] = target: T1, Albumin; assay: Binding affinity to bovine serum albumin assessed as hydrogen bonding interaction by measuring change in enthalpy at 298K by thermodynamic based analysis; type: ADME, cell-free; details: cattle
# [36] = target: T1, Albumin; assay: Binding affinity to bovine serum albumin assessed as hydrophobic interaction by measuring change in entropy at 298K by thermodynamic based analysis; type: ADME, cell-free; details: cattle
# [37] = target: T1, Albumin; assay: Binding affinity to bovine serum albumin assessed as spontaneous interaction by measuring change in gibbs free energy at 298K by thermodynamic based analysis; type: ADME, cell-free; details: cattle
# [38] = target: T2, Albumin (Homo sapiens, UniProt P02768); assay: Binding affinity to human serum albumin assessed as appearance of new absorption band at 400 nm at 0-7 uM by UV-Vis absorption spectroscopy; type: ADME, cell-free; details: 0.4 µM
# [39] = target: T2, Albumin; assay: Binding affinity to human serum albumin assessed as binding constant by UV-Vis absorption spectroscopy; type: ADME, cell-free
# [40] = target: T2, Albumin; assay: Binding affinity to human serum albumin assessed as decrease in emission peak intensity band at 348 nm at 0-13 uM by fluorescence emission spectroscopy; type: ADME, cell-free; details: 0.348 µM
# [41] = test system: DNA; assay: Binding affinity to human DNA in blood assessed as DNA intercalation by measuring increase in fluorescence emission intensity at 498 nm at 20 uM by fluorescence emission spectral analysis; type: tissue-based
# [42] = Ratio of Kb for human DNA in blood to Kb for calf thymus DNA
# [43] = test system: SW-620; assay: Antitumor activity against human SW620 cells assessed as cell growth inhibition at 10 uM incubated for 48 hrs by sulforhodamine B assay; details: SW-620, 48 h, read-out: GI
# T1 sequence (P02769 whole entry): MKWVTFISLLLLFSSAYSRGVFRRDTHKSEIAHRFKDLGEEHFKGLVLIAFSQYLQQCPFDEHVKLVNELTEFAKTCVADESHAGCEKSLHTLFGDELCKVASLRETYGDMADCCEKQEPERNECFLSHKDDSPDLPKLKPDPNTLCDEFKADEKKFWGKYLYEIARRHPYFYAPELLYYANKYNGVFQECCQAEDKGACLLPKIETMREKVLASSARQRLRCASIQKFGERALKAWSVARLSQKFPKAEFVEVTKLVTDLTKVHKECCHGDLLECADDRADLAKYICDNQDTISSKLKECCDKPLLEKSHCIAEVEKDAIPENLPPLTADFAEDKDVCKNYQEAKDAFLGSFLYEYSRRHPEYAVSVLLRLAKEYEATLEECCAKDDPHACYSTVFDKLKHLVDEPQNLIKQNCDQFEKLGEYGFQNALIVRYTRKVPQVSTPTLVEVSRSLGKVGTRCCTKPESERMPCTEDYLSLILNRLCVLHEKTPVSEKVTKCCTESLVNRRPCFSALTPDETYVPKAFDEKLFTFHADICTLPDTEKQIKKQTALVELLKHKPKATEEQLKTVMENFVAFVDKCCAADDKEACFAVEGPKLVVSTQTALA
# T2 sequence (P02768 whole entry): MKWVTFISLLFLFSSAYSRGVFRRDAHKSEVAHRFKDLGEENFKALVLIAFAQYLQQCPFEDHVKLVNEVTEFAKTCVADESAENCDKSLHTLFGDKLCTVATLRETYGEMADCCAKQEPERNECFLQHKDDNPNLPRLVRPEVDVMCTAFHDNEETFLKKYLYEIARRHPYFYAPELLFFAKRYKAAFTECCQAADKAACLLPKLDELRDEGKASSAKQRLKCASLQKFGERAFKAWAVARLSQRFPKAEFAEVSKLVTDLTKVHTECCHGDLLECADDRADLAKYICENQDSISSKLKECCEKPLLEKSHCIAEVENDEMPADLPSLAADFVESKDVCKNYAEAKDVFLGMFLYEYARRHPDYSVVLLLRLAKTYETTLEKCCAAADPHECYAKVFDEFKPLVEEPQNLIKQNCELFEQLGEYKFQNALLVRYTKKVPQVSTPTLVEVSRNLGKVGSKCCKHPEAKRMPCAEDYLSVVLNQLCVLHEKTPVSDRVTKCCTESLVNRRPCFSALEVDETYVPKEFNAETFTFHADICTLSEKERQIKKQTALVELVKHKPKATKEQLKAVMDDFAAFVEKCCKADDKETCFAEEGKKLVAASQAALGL
smiles,measurement,setting,value
O=C1NC(=O)/C(=C/c2ccc(-c3nc4c5ccccc5c5ccccc5c4[nH]3)cc2)S1,inhibition of growth at 10 µM,[1],68.1%
same,inhibition of growth at 10 µM,[2],66.1%
same,inhibition of growth at 10 µM,[3],11.5%
same,inhibition of growth at 10 µM,[4],47.6%
same,inhibition of growth at 10 µM,[5],< 10%
same,inhibition of growth at 10 µM,[6],43.9%
same,inhibition of growth at 10 µM,[7],12.3%
same,inhibition of growth at 10 µM,[8],18.1%
same,inhibition of growth at 10 µM,[9],30.3%
same,inhibition of growth at 10 µM,[10],47.9%
same,inhibition of growth at 10 µM,[11],< 10%
same,inhibition of growth at 10 µM,[12],< 10%
same,inhibition of growth at 10 µM,[13],93%
same,inhibition of growth at 10 µM,[14],19.1%
same,inhibition of growth at 10 µM,[15],51.9%
same,inhibition of growth at 10 µM,[16],17.6%
same,inhibition of growth at 10 µM,[17],51.7%
same,Activity,[18],78%
same,Activity,[19],75%
same,Activity,[20],42%
same,Activity,[21],15%
same,Activity,[22],6%
same,Activity,[23],4%
same,ΔTm,[24],7.1 °C
same,Activity,[25],Active
same,Activity,[26],Active
same,Activity,[27],Active
same,Kq,[28],3.46 10^11/M/s
same,Activity,[29],Active
same,Activity,[30],Active
same,KSV,[31],8.42 10^5/M
same,Kq,[32],8.42 10^13/M/sec
same,Kq,[33],8.15 10^13/M/sec
same,Kq,[34],3.51 10^13/M/sec
same,deltaH,[35],-2.92 kcal/mol
same,deltaS,[36],20.43 cal/mol.K
same,deltaG,[37],-9 kcal/mol
same,Activity,[38],Active
same,Kb,[39],9.35 10^4/M
same,Activity,[40],Active
same,Activity,[41],Active
same,Ratio,[42],2
same,inhibition of growth at 10 µM,[43],22.8%

# Source: ChEMBL document CHEMBL4665624, “Synthesis of 5-(4-(1H-phenanthro[9,10-d]imidazol-2-yl)benzylidene)thiazolidine-2,4-dione as promising DNA and serum albumin-binding agents and evaluation of antitumor activity” (Eur J Med Chem, 2019)
